Assay results reported in patent publication US5776939A, “Drug resistance and multidrug resistance modulators” (Eli Lilly and Company, priority 1997, dated 1998).

Columns and labels:
[1] = target: p-glycoprotein (Homo sapiens, UniProt P08183); details: for EC50: cem/vlb100 cells, 72 h; for Rev100 (lowest concentration of modifier which can achieve 100% reversal activity): human, 4320 min
Description: When in vitro testing for multidrug resistance modulation with cancer chemotherapeutic drugs is conducted compounds are evaluated for their ability to show multidrug resistance modulation when coadministered with an oncolytic.
The cells can be maintained in SMEM medium supplemented with 10% FBS and 2 mM L-glutamine in a humidified incubator with 95% air and 5% C02. Cell number can be determined using a Coulter Counter model ZM. Cells can be subcultured every 3-4 days.
Cell viability can be determined using a modified MTT dye reduction method (Denziot, F., Lang, R., "Rapid colorimetric assay for cell growth and survival modifications to the tetrazolium procedure giving improved sensitivity and reliability", J. Immunological Methods, 89, 271-277, (1986)). A brief description of this method is as follows: cells are harvested during the logarithmic growth phase, and seeded in 96-well serocluster plates at 7.5×10^3 cells/well and cultured for 72 hours in the presence of serially diluted oncolytics (VLB, DOX, VP-16 and Taxol®)±modulators. A single well assay is conducted using a fixed concentration of VLB (4 ng/ml) and modulator (5μM). The cytotoxicity of the modulator alone, at the same concentration is also determined. Modulators are prepared as 2 mM stocks in DMSO and added to the wells to give final concentrations ranging from 5 pM to 0.5 WM. After 72 hours, 20 µl of freshly prepared MTT (5 mg/ml in Dulbecco's phosphate buffered saline pH 7.5) is added to each well and placed for 4 hours in a 37° C. incubator. Cells are pelleted at 1800 R.P.M. for 10 minutes in a Sorvall RT6000B centrifuge. After centrifugation, 70 μl of medium is carefully removed from each well, and 100 µl of 2- propanol/0.04 N HC1 is added to dissolve the blue formazan stained cells. Cells are resuspended 5-10 times with a multipipettor or until no particulate matter was visible. Plates are immediately read on a Yitertek MCC/340 microplate reader (Flow Laboratories (McLean, VA) with a wavelength of 570 nm and a reference wavelength of 630 nm). Controls are measured in quadruplicate and modulators in duplicate.
IC50 's are calculated from semilog dose response curves in the presence and absence of modulators for both the parent and resistant cell lines. The fold shift is calculated as the IC50 for cells treated with oncolytic alone divided by the IC50 for cells treated with oncolytic+modulator.

[2] = tested on: multidrug resistance; details: in vivo; cited from earlier work
[3] = in vivo; cited from earlier work
[4] = tested on: drug-resistant malaria; details: in vitro; cited from earlier work

p-glycoprotein, sequence (P08183 whole entry): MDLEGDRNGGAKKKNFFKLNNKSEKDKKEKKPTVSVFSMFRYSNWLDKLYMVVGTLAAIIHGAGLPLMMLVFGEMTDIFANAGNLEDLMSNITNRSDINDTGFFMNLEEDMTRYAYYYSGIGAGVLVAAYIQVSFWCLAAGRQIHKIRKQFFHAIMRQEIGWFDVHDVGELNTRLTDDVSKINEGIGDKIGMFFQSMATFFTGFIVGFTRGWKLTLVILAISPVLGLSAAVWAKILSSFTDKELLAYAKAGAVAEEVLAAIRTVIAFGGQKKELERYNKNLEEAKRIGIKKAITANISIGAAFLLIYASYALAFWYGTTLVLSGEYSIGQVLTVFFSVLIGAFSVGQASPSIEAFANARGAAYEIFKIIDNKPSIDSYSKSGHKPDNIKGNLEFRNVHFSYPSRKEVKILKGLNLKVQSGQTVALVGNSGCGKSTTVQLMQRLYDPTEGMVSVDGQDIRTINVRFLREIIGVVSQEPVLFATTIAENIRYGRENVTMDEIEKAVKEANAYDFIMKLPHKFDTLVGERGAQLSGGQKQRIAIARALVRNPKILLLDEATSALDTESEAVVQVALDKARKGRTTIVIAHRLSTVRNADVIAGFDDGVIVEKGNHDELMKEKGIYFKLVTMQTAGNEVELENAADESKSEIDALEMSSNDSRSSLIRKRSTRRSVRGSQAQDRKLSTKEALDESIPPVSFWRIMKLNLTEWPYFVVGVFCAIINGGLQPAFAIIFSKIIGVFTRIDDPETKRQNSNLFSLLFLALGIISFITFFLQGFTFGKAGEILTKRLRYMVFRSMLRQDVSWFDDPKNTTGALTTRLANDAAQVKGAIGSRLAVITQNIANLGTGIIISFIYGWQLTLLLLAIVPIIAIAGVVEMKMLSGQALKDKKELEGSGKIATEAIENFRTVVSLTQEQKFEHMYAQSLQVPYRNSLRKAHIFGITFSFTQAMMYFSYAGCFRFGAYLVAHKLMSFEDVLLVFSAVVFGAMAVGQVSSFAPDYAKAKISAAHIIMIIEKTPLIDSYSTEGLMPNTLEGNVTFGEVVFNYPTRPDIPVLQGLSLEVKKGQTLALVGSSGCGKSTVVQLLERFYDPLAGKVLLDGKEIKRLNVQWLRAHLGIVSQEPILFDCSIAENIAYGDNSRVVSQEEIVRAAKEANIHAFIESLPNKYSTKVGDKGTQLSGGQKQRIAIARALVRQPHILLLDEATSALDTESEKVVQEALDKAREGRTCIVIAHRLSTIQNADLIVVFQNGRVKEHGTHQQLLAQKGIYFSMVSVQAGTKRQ

| SMILES | MDR Reversal Activity [1] | EC50 [1] | Rev100 (lowest concentration of modifier which can achieve 100% reversal activity) [1] | dose required to be effective as a multidrug resistance modulator [2] | oral bioavailability [3] | effect on drug-resistant malaria [4] |
| --- | --- | --- | --- | --- | --- | --- |
| OC(CCc1cccc2ncccc12)CN1CCN([C@@H]2c3ccccc3[C@@H]3[C@H](c4ccccc42)C3(F)F)CC1 (stereo partly drawn) [Example 1e, anti-5-{1-(4-(10,11-difluorocyclopropyldibenzosuber-5-yl)piperazin-1-yl)-2(R,S)-hydroxybut-4-yl}quinoline·3HC1] | potent | 1000 nM | > 1.0 µM | – | – | – |
| O[C@@H](CSc1cccc2ncccc12)CN1CCN([C@@H]2c3ccccc3[C@@H]3[C@H](c4ccccc42)C3(F)F)CC1 [Example 2b, anti-5-{l-(4-(10,11-difluorocyclopropyldi-benzosuber-5-yl)piperazin-1-yl)-2(R)-hydroxyprop-3-ylthio}quinoline·3HC1] | potent | 250 nM | 0.50 µM | – | – | – |
| O=C(C(c1ccccc1)c1ccccc1)N1CCN(CC(O)COc2cccc3ncccc23)CC1 (stereo not drawn) [MS-209] | – | – | – | higher doses | better | – |
| COc1ccc(CCN(C)CCCC(C#N)(c2ccc(OC)c(OC)c2)C(C)C)cc1OC (stereo not drawn) [verapamil] | – | – | – | – | – | effective |
